The text below walks through data of paper PMC7845594, “Novel Immune Modulators Enhance Caenorhabditis elegans Resistance to Multiple Pathogens” (mSphere, 2021).

This assay relates to C. elegans transcriptome. In words: Transcriptome profiling (Affymetrix microarrays), differentially expressed genes. The format is in vivo, Caenorhabditis elegans. Conditions: downregulated genes. The procedure: To gain additional insight into the effect of LK molecules on C. elegans, young-adult, wild-type worms were treated with each drug at 100 µM for 8 h in the absence of pathogen. RNA was collected, and transcriptome profiling was performed.
Data were determined using Affymetrix microarrays, as described in Materials and Methods. Download Table S3, XLSX file, 0.07 MB.
Transcriptome profiling was performed on ∼6,000 wild-type, young adult worms incubated with either LK molecules or DMSO for 8 h. RNA isolation was performed using TRIzol extraction, followed by cleanup using RNeasy columns according to the manufacturer’s protocol. Each condition was analyzed in triplicate. Microarray data have been deposited in the GEO database, accession number GSE137516. […] Clustering and generation of the heat map was performed using Cluster 3.0 ([98]) and Treeview ([99]), respectively. Fold change of genes were normalized to average fold change of that gene over all clustered conditions. Genes and conditions were clustered using Euclidean distance and average linkages. […] Microarray data for non-LK molecules were collected from GEO omnibus. WormEXP was used as a secondary method for confirming statistical significance of potential pathways stimulated by each of the LK molecules ([100]). Gene ontologies were generated using DAVID ([101], [102]).

As to `O=c1cc(CNc2ccc(Br)cc2)nc2sccn12` [LK56], the “Fold Change” value reads like this: (Gene F37C12.7, Affy_ID 174751_at) 0.2156; (Gene R11.4, Affy_ID 177194_at) 0.488; (Gene Y92C3B.2, Affy_ID 175744_s_at) 0.43.
